From US8415312B2, “Compound which is a nystatin derivative” (Biosergen AS, priority 2007, dated 2013)
Values after ≈ are worked out from the molar mass of the structure shown. Values joined by “and” are separate entries in the source; they are usually repeats but may differ in a detail not shown here. Identical values can stand only once.

How the values were obtained:
[1] = test system: yeasts and filamentous fungi (moulds); assay: Antifungal susceptibility study (1), overall comparison across the test organisms; type: cell-based; settings: for antifungal activity, rank within the series: Tables 7 and 8; for anti-fungal activity compared with Amphotericin B and S44HP: Table 5 MICs
Experimental: The organisms used for susceptibility testing were: Candida albicans ATCC 14053, Cryptococcus humicolus ATCC 9949, Aspergillus niger ATCC 16404 and Fusarium oxysporum VKM F-140 (=CMI, IMI 90473). Organisms were stored on potato dextrose agar […] 50% glycerol solution at -70° C. For short-term storage, stock cultures were stored on agar […] 4° C. The cultures of yeasts were sub-cultured onto Sabouraud dextrose (SAB) agar and incubated for 24 hours at 35° C. (Candida albicans) or for 48 hours at 25° C. (Cryptococcus humicolus) to obtain a freshly grown pure culture. The cultures of moulds were sub-cultured onto potato dextrose agar and incubated for 7 days at 35° C. […] (Fusarium oxysporum) to ensure maximum sporulation. Sterile 96-well flat-bottomed microtitration plates were used for testing. 100 μl of diluted inocula were dispensed into each microdilution well containing 100 μl of the double dilutions of compounds. Drug-free and yeast/mould-free controls were included. Microdilution trays were incubated at 35° C. (Candida albicans and moulds) or 25° C. (Cryptococcus humicolus) without agitation and observed for the presence or absence of visible growth. […] Minimal inhibitory concentrations (MICs) were read at 48 hours.

[2] = test system: Candida albicans (strain 14053 ATCC); assay: Model of the candidiasis sepsis of mice, kidney burden; type: in vivo; settings: for Candida albicans burden in kidneys (Mean): day 5, n=3 mice
Experimental: In experiments used female mice of hybrids of first generation (C57B1/6xDBA/2)F1 (B6D2F1), weight 18-20 g., received from the Central farm “Kryukovo” of Russian Academies of Medical Science (RAMS). Animals were maintained in Institute' vivarium in plastic cages (with hardwood bedding in environmentally controlled room: 24±1° C., 12/12 hours light/dark cycle) on a standard diet of bricketed forages with an easy approach to drinking water (ad libitum). After 2-week quarantine healthy animals were used in experimental work.
A preparation of comparison was amphotericin B (pure). Solutions of tested preparations prepared ex tempore by the technique specified by the customer.
Animals were housed on 3 mice and infected intravenously with culture Candida albicans in a doze 1.0 million CFU/mouse in volume of 0.1 ml. It is necessary to note, that doze Candida albicans remained a constant in all experiments. In 30 minutes after infection to mice carried out the first intravenous introduction of tested preparations in corresponding dozes in volume of 0.2 ml (with a speed of 0.2 ml/30 second).
Experiment has been planned in such a manner that in each experiment one doze (both for amphotericin B was used, and for tested preparations), each doze entered daily within four days, since day of infection (0, 1, 2 and 3 days). At each experiment there was a group untreated, infected with Candida albicans animals. Also there was a group “placebo”, intact (not infected) animals, which intravenously (in the same volume as medical preparations) injected 0.2 ml of solvent—phosphatic buffer +5% glucose (1:1).
On the post challenge 5th day of experiment, mice were weighed and euthanized (killed) by a cervical dislocation. Then, in sterile conditions, Candida albicans burdens were determined by viable counting of homogenates from the kidneys. The kidneys, which were removed aseptically and weighed, pounded in porcelain mortars with sterile corundum, did dilutions of the received suspensions and sowed on Petri dishes with agar Saburo, incubated for 48 hours at temperature 35° C., then counted up developed colonies Candida albicans and recalculated their quantity on 1 g of kidney' tissue. The first dilution was 10^−1. Zero result at this cultivation accepted for 5 CFU/g.
For the basic criterion of an assessment of the investigated preparations the maximal effect of the Amphotricin B was accepted (effective dose, ED).
For significant accepted distinctions of average at P≦0.05 at comparison by Student t-criterion.

[3] = test system: Fusarium oxysporum VKM F-140; assay: Antifungal susceptibility study (1), broth microdilution MIC; type: cell-based; settings: lowest concentration preventing any visible growth, read at 48 hours, 35° C., RPMI 1640 pH 7.0
Method in brief: (§1)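 Broth microdilution was run at pH 7.0 with compounds diluted from DMSO solutions and mixed 1:1 with conidial inoculum. Spore suspensions were adjusted to OD530 0.09-0.11 for A. niger or 0.15-0.17 for F. oxysporum, then diluted 1:50. Plates were incubated at 35° C without agitation, and MIC was read at 48 hours as absence of visible growth.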

[4] = test system: Aspergillus niger ATCC 16404; assay: as above; type: cell-based; settings: lowest concentration preventing any visible growth, read at 48 hours, 35° C., RPMI 1640 pH 7.0
Method in brief: as §1

[5] = test system: Candida albicans ATCC 10231; assay: Antifungal susceptibility study (2), MIC50 by OD490 growth; type: cell-based; settings: 50% growth inhibition from regression curve, M19 medium without NaCl, 30° C.
Experimental: The anti-fungal activity of several of the nystatin derivatives was further investigated. […] The anti-fungal activity of a number of the nystatin derivatives was therefore determined in a method which is designed to be more sensitive.
The test organism used for the further testing of polyene macrolide bioactivity was Candida albicans ATCC 10231, grown in 120 μl of standard M19 medium without NaCl (with an inoculum of 1000 cfu per well) and 30 μl of diluted polyene macrolide samples. The antibiotics were diluted in MeOH in series ensuring a spectrum of concentrations which yielded results ranging from complete growth inhibition to no inhibition of the test organism. The test organism cultures with antibiotic dilutions were incubated in 96-well microtiter plates at 30° C. without shaking, and growth was measured as OD490 after 12, 14 and 16 hours on a SpectraMax Plus microtiter plate reader. OD was plotted against antibiotic concentration, and MIC50 was estimated from the regression curve at 50% growth inhibition.

[6] = dose 0.16 mg/kg/d i.v. for four days
[7] = dose 0.62 mg/kg/d i.v. for four days
[8] = dose 1.25 mg/kg/d i.v. for four days
[9] = dose 2.5 mg/kg/d i.v. for four days
[10] = dose 0.08 mg/kg/d i.v. for four days
[11] = dose 0.31 mg/kg/d i.v. for four days

Compound | antifungal activity, rank within the series [1] | Candida albicans burden in kidneys (Mean) [2, 6] | Candida albicans burden in kidneys (Mean) [2, 7] | Candida albicans burden in kidneys (Mean) [2, 8] | Candida albicans burden in kidneys (Mean) [2, 9] | Candida albicans burden in kidneys (Mean) ([2]; dose 5 mg/kg/d i.v. for four days, zero result accepted for 5 CFU/g) | MIC Fusarium oxysporum VKM F-140 [3] | MIC Aspergillus niger ATCC 16404 [4] | MIC50 [5] | anti-fungal activity compared with Amphotericin B and S44HP [1] | MIC Aspergillus niger ATCC 16404 ([4]; listed as Comp 1) | dose of maximal activity as % from MTD ([2]; 1.25 mg/kg/d) | Candida albicans burden in kidneys (Mean) [2, 10] | Candida albicans burden in kidneys (Mean) [2, 11] | dose of maximal activity (effective dose, ED) ([2]; highest studied dose, criterion of activity)
CC1C=CC=CC=CC=CC=CC=CC=CC(OC2OC(C)C(O)C(N)C2O)CC2OC(O)(CC(O)C(O)CCC(O)CC(O)CC(O)CC(=O)OC(C)C(C)C1O)CC(O)C2C.NC(CCC(=O)O)C(=O)O [Compound 29, Compound 1 L-glutamate] | most active salt of Compound 1 | 102667 CFU/g | 12500 CFU/g | 2557 CFU/g | 133 CFU/g | 5 CFU/g | 2 µg/mL | 2 µg/mL | – | – | – | – | – | – | –
CC1C=CC=CC=CC=CC=CC=CC=CC(OC2OC(C)C(O)C(N)C2O)CC2OC(O)(CC(O)C(O)CCC(O)CC(O)CC(O)CC(=O)OC(C)C(C)C1O)CC(O)C2C(=O)NCCCN(C)C (centres unmarked) [Compound 11, S44HP DMAP Amide] | – | – | – | – | – | – | 2 µg/mL (≈ 1.98 µM) | 2 µg/mL (≈ 1.98 µM) | 0.12 µg/mL (≈ 0.119 µM) | comparable anti-fungal activity to Amphotericin B and S44HP | – | – | – | – | –
CC1C=CC=CC=CC=CC=CC=CC=CC(OC2OC(C)C(O)C(N)C2O)CC2OC(O)(CC(O)C(O)CCC(O)CC(O)CC(O)CC(=O)OC(C)C(C)C1O)CC(O)C2C (centres unmarked) [Compound 1] | – | – | – | – | – | – | 2 µg/mL (≈ 2.24 µM) | 1 µg/mL and 2 µg/mL | 0.07 µg/mL (≈ 0.0783 µM) | comparable anti-fungal activity to Amphotericin B and S44HP | 2 µg/mL (≈ 2.24 µM) | – | – | – | –
C[C@@H]1[C@H](O)[C@@H](C)/C=C/C=C/C=C/C=C/C=C/C=C/C=C/[C@H](O[C@@H]2O[C@H](C)[C@@H](O)[C@H](N)[C@@H]2O)C[C@@H]2O[C@](O)(C[C@@H](O)C[C@@H](O)[C@H](O)CC[C@@H](O)C[C@@H](O)CC(=O)O[C@H]1C)C[C@H](O)[C@H]2C(=O)O [Amphotericin B, reference compound] | – | 85667 CFU/g | 10667 CFU/g | 1667 CFU/g | – | – | 4 µg/mL (≈ 4.33 µM) | 1 µg/mL (≈ 1.08 µM) | 0.12 µg/mL (≈ 0.13 µM) | – | – | ≈ 62% | 105000 CFU/g | 34667 CFU/g | 1.25 mg/kg/day
CC1O[C@@H](O[C@H]2/C=C/C=C/C=C/C=C/C=C/C=C/C=C/[C@H](C)[C@@H](O)[C@@H](C)[C@H](C)OC(=O)C[C@H](O)C[C@H](O)C[C@H](O)CC[C@@H](O)[C@H](O)C[C@]3(O)C[C@H](O)[C@@H](C)[C@H](C2)O3)[C@H](O)C(NC(=O)[C@@H](N)CCCCN)[C@@H]1O (stereo partly drawn) [Compound 51, N-L-Lysyl-Compound 1] | most active derivative in this series with antifungal activity slightly higher than the parent antibiotic | – | 17833 CFU/g | 9400 CFU/g | 5 CFU/g | – | 2 µg/mL (≈ 1.96 µM) | 1 µg/mL (≈ 0.978 µM) | – | – | – | – | 56667 CFU/g | 22667 CFU/g | –
